Source: patent US10730919B2, “Peptides” (APITOPE INTERNATIONAL NV, priority 2013, dated 2020)

System: RNB12 specific T cells
Assay: Identification of apitopes in the RNB12 region (fresh vs fixed APCs, proliferation and IFN gamma)
Type: cell-based, human
Conditions: RNB12 specific TCL, fresh or fixed BM14 cells (FIG. 18)
Description: Peripheral blood monocytes (PBMC) from healthy donors or Graves' disease patients were isolated (Histopaque-1077, Sigma-Aldrich), and frozen in aliquots. At day 0, cells were thawed and 106 PBMCs/ml cultured with 20 ug/ml peptide in supplemented (10 mM HEPES, 50 U/ml Penicillin/Streptomycin and 4 mM L-Glutamine (Lonza)) RPMI 1640 (Lonza) with 5% AB serum (Sigma Aldrich) added in a 6 well plate (Greiner Bio-one) and incubated in 37 C and 5% CO2. After 7 days rhIL-2 (R&D Systems) is added to a final concentration of 20 U/ml. […]
At day 24 the cells were harvested, washed and 2×104 cultured in a 96 well round-bottom plate (Cellstar, Greiner Bio One) with […] irradiated autologous PBMCs and VAVY/BM14/MGAR human cell lines expressing human MHC cl II molecules (International Histocompatibility Working group, Seattle, US) in supplemented RPMI+5% AB serum in presence of different antigens (peptides, protein) in concentration from 5-50 ug/ml. […] After the plates been frozen the cells were harvested and read with β counter (Wallac 1450 Microbeta Trilux) to assess proliferation. […]
The supernatants from TCL cultures were assessed for IFN gamma content by use of the Human IFN-gamma Duoset kit, R&D Systems following the manufacturer's instruction. Optical density was measured at 450 nm (Tecan Benelux)

KKKTLKLYNNGFTSVQGYKKK [RNB12-KKK]
apitope status: confirmed to be apitopes
